Laboratory results as given in patent publication US8415469B2, “Compounds and methods for kinase modulation, and indications therefor” (Plexxikon Inc., priority 2005, dated 2013).

What was measured:
Assay type in all cases: biochemical
B-Raf = target: T1, B-Raf (Homo sapiens, UniProt P15056); test: AlphaScreen kinase assay, B-Raf; conditions: read-out: IC50, activity toward kinase B-Raf
T1 construct: purchased Upstate Biotechnology

Jnk1 = target: T2, Jnk1 (Homo sapiens, UniProt P45983); test: AlphaScreen kinase assay, Jnk1; conditions: read-out: IC50, activity toward kinase Jnk1
T2 construct: purchased Upstate Biotechnology
T2 sequence (P45983 whole entry): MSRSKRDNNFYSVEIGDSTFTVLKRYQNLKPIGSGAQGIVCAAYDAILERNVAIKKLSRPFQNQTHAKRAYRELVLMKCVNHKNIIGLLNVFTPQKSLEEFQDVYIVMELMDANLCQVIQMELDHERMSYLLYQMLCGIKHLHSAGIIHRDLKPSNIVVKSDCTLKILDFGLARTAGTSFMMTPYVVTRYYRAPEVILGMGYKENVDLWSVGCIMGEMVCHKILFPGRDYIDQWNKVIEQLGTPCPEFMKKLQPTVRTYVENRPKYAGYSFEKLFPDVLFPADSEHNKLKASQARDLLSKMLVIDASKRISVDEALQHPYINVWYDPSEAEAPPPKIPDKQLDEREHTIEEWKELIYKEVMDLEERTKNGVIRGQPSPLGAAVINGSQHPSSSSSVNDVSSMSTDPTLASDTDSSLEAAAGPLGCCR

Src = target: T3, Src (Homo sapiens, UniProt P12931); test: AlphaScreen kinase assay, Src; conditions: read-out: IC50, activity toward kinase Src
T3 construct: P1144. pET-N6 BI-PTP SRC V86-L536-X; made in house
T3 sequence (P12931 with tags, fused parts or gaps): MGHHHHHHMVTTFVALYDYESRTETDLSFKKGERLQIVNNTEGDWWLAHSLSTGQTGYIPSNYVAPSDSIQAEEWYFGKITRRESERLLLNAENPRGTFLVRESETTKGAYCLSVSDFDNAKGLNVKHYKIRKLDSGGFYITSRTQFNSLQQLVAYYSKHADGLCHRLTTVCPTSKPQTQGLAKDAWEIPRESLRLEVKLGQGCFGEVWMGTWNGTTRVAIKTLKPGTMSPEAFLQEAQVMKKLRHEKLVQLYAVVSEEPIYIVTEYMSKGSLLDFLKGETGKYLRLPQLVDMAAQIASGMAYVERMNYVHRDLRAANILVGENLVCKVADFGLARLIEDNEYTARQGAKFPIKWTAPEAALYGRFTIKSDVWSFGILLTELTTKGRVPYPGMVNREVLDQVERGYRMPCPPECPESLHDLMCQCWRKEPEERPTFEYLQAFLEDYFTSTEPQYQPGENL

Jnk3 = target: T4, Jnk3 (Homo sapiens, UniProt P53779); test: AlphaScreen kinase assay, Jnk3; conditions: read-out: IC50, activity toward kinase Jnk3
T4 construct: purchased Upstate Biotechnology

B-Raf V600E = target: T5, B-Raf V600E (Homo sapiens, UniProt P15056, V600E); test: AlphaScreen kinase assay, B-Raf V600E; conditions: read-out: IC50, activity toward kinase B-Raf V600E
T5 construct: P4254. pFastBacBD-CDC37 BRAF D437-K722-X, V600E; His6 with pFastBac HT leader (TEV site) (N); made in house; host or cells: Sf9 (baculovirus; chaperone CDC37 co-expressed)
T5 sequence (P15056 with tags, fused parts or gaps V600E): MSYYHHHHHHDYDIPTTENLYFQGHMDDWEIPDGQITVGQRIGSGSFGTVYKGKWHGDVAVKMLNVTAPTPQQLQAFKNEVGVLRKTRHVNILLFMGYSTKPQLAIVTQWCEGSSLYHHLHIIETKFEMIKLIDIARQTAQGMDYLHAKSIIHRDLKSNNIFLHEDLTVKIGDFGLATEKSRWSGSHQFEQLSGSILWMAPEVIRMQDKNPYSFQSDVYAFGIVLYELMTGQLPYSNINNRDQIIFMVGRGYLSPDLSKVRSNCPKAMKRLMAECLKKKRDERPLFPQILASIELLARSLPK

Fak = target: T6, Fak (Homo sapiens, UniProt Q05397); test: AlphaScreen kinase assay, Fak; conditions: read-out: IC50, activity toward kinase Fak
T6 construct: P1358.pFastBacHtb FAK S411-Q686-X; His6 with pFastBacHTb leader (TEV site) (N); made in house; host or cells: Sf9 (baculovirus)
T6 sequence (Q05397 411-686): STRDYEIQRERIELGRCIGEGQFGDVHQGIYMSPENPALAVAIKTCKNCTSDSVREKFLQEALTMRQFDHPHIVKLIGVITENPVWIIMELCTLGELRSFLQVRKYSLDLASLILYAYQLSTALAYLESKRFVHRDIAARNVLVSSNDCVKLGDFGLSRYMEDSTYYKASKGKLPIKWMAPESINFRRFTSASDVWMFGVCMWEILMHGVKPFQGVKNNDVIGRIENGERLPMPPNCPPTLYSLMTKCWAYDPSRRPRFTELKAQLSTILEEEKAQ

Fms = target: T7, Fms (Homo sapiens, UniProt P07333); test: AlphaScreen kinase assay, Fms; conditions: read-out: IC50, activity toward kinase Fms
T7 construct: purchased Upstate Biotechnology
T7 sequence (P07333 20-972): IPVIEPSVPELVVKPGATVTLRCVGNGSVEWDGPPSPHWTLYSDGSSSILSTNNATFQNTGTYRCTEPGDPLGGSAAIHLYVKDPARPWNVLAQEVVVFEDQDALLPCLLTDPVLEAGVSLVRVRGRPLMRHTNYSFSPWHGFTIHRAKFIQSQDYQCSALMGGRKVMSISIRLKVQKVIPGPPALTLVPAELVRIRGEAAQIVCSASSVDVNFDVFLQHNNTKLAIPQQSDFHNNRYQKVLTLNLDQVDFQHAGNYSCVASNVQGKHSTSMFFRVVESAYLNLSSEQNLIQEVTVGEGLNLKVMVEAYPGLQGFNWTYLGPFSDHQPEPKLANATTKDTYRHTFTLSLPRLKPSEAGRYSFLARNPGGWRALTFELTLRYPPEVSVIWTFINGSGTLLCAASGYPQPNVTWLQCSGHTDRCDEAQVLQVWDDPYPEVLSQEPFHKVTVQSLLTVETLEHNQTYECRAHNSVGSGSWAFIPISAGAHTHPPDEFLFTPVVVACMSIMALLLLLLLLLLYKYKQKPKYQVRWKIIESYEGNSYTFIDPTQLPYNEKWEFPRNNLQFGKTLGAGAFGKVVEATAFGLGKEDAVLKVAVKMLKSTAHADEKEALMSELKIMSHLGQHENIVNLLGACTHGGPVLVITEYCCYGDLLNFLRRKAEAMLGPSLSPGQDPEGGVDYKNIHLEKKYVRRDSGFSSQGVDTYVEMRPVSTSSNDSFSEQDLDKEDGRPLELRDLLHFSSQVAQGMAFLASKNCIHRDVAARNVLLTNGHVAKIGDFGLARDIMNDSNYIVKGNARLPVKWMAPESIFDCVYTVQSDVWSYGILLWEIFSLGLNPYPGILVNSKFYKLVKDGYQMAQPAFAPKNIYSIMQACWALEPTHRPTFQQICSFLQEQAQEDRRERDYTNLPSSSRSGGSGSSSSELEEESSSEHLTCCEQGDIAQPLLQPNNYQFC

FGFR1 = target: T8, FGFR1 (Homo sapiens, UniProt P11362, C488A/C584S); test: AlphaScreen kinase assay, FGFR1; conditions: read-out: IC50, activity toward kinase FGFR
T8 construct: P1351.pET N6 BI-PTP FGFR A458-E765-X C488A, C584S; made in house; host or cells: E. coli (PTP1B co-expressed)
T8 sequence (P11362 458-765 C488A/C584S): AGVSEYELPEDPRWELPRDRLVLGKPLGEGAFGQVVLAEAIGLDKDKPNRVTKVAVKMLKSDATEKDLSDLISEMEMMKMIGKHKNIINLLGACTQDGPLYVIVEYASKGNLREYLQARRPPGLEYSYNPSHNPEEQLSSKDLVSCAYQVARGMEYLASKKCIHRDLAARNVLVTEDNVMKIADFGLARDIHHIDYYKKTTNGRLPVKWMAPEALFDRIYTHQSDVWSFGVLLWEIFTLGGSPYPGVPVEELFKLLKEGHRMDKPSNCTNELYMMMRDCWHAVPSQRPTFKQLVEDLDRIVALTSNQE

Btk = target: T9, Btk (Homo sapiens, UniProt Q06187); test: Z'-Lyte FRET kinase assay (Invitrogen), Btk; conditions: read-out: IC50, activity toward kinase Btk
T9 construct: purchased Invitrogen (assay run by Invitrogen)
T9 sequence (Q06187 whole entry): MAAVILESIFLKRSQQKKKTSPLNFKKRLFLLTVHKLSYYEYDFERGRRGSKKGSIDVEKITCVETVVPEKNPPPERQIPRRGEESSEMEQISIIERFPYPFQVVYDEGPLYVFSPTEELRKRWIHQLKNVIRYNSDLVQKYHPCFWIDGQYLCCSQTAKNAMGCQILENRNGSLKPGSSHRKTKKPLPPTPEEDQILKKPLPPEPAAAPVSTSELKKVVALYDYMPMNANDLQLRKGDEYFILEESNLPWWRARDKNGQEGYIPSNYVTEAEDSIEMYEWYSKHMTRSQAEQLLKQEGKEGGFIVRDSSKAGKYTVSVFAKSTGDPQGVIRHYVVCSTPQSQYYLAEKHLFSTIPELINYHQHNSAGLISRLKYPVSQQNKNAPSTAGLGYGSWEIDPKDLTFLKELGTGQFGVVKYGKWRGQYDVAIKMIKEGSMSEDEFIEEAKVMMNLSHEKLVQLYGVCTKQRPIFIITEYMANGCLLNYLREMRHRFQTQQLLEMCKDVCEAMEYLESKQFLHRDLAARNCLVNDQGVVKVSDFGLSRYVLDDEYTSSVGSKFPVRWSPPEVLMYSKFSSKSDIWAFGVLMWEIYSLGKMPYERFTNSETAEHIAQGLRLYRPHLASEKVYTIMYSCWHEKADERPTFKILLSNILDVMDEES

Kit = target: T10, Kit (Homo sapiens, UniProt P10721); test: AlphaScreen kinase assay, Kit; conditions: read-out: IC50, activity toward kinase Kit
T10 construct: P1332.N6 BI PTP KIT M552-K948-X COD; His6 (N); made in house; host or cells: E. coli (PTP1B co-expressed)
T10 sequence (P10721 with tags, fused parts or gaps): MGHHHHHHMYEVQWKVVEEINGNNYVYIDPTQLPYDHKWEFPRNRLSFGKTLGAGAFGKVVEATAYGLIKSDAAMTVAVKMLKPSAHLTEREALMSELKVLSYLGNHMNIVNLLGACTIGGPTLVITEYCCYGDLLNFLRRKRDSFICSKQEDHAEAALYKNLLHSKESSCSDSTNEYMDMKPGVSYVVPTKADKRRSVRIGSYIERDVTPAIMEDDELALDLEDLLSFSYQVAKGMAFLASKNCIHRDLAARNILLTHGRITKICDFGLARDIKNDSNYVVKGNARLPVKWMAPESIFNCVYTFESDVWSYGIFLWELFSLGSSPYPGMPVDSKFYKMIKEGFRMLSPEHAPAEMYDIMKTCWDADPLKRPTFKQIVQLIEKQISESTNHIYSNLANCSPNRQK

Flt1 = target: T11, Flt1 (Homo sapiens, UniProt P17948); test: AlphaScreen kinase assay, Flt1; conditions: read-out: IC50, activity toward kinase Flt1
T11 construct: P1826.pETN6 BI-PTP FLT1 M799-D1165-X WT; His6 (N); made in house; host or cells: E. coli (PTP1B co-expressed)
T11 sequence (P17948 with tags, fused parts or gaps): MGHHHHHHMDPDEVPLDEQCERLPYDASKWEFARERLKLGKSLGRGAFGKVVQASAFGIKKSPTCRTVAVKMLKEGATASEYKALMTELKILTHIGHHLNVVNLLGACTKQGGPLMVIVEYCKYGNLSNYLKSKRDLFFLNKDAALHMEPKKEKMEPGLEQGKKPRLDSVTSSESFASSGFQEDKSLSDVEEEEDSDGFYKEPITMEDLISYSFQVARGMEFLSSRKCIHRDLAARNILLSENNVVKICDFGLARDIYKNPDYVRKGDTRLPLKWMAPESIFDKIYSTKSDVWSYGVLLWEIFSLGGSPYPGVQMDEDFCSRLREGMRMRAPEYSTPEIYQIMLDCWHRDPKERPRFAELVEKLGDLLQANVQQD

c-Raf-1 = target: T12, c-Raf-1 (Homo sapiens, UniProt P04049); test: AlphaScreen kinase assay, c-Raf-1; conditions: read-out: IC50, activity toward kinase c-Raf-1
T12 construct: purchased Upstate Biotechnology

Ret = target: T13, Ret (Homo sapiens, UniProt P07949); test: AlphaScreen kinase assay, Ret; conditions: read-out: IC50, activity toward kinase Ret
T13 construct: P1378.pET-SF BI-PTP RET H661-R1012 HIS; made in house
T13 sequence (P07949 with tags, fused parts or gaps): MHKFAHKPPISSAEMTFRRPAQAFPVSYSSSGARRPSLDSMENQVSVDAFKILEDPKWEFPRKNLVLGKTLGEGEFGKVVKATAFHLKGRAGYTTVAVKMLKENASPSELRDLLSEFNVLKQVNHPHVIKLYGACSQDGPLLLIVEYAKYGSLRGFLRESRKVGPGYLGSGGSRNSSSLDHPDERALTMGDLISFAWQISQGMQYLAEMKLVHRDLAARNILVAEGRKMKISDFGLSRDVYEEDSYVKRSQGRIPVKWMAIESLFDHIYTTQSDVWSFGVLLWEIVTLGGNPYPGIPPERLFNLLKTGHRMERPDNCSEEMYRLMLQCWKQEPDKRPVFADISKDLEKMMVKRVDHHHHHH

Kdr = target: T14, Kdr (Homo sapiens, UniProt P35968); test: Z'-Lyte FRET kinase assay (Invitrogen), Kdr; conditions: read-out: IC50, activity toward kinase Kdr
T14 construct: purchased Invitrogen (assay run by Invitrogen)

T1 sequence (P15056 whole entry): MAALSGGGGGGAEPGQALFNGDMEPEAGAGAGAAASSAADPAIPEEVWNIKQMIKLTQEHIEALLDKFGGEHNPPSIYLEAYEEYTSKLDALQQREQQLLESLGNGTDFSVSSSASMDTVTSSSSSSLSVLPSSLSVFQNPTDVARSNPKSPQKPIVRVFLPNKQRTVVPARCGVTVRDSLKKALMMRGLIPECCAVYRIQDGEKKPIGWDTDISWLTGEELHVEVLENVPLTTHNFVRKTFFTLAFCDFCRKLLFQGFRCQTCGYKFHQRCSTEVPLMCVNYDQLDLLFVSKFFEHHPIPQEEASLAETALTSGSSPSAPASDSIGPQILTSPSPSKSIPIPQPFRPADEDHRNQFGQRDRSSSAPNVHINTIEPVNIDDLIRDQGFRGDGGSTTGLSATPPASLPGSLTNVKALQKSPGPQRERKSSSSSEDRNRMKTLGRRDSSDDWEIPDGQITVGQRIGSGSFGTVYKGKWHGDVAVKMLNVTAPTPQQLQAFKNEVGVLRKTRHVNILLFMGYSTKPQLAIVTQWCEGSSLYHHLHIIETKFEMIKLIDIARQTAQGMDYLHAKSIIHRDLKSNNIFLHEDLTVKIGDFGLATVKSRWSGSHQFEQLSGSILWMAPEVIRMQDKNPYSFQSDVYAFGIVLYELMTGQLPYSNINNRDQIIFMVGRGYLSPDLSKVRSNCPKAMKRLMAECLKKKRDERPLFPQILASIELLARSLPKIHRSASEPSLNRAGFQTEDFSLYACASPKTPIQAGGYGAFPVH

| SMILES | IC50 (B-Raf) | IC50 (Jnk1) | IC50 (Src) | IC50 (Jnk3) | IC50 (B-Raf V600E) | IC50 (Fak) | IC50 (Fms) | IC50 (FGFR1) | IC50 (Btk) | IC50 (Kit) | IC50 (Flt1) | IC50 (c-Raf-1) | IC50 (Ret) | IC50 (Kdr) |
| --- | --- | --- | --- | --- | --- | --- | --- | --- | --- | --- | --- | --- | --- | --- |
| CCCS(=O)(=O)Nc1ccc(F)c(C(=O)c2c[nH]c3ncc(/C=C/C(=O)O)cc23)c1F [Compound P-1269, 3-3-[2,6-difluoro-3-(propane-1-sulfonylamino)-benzoyl]-1H-pyrrolo[2,3-b]pyridin-5-yl-acrylic acid] | ≤ 10 µM | – | ≤ 10 µM | – | ≤ 10 µM | ≤ 10 µM | ≤ 10 µM | ≤ 10 µM | ≤ 10 µM | ≤ 10 µM | ≤ 10 µM | – | – | – |
| O=C(c1ccc(Cl)cc1)c1c[nH]c2ncc(-c3ccsc3)cc12 [Compound P-0321] | – | – | – | – | – | – | – | ≤ 10 µM | ≤ 10 µM | ≤ 10 µM | – | – | ≤ 10 µM | ≤ 10 µM |
| Cc1cccc(C)c1Cc1c[nH]c2ncc(-c3cccnc3)cc12 [Compound P-1481, 3-(2,6-Dimethyl-benzyl)-5-pyridin-3-yl-1H-pyrrolo[2,3-b]pyridine] | ≤ 10 µM | – | ≤ 10 µM | – | ≤ 10 µM | ≤ 10 µM | ≤ 10 µM | ≤ 10 µM | ≤ 10 µM | ≤ 10 µM | – | – | – | – |
| O=C(c1c(Cl)cccc1Cl)c1c[nH]c2ncc(-c3cccnc3)cc12 [Compound P-1479] | ≤ 10 µM | – | ≤ 10 µM | – | ≤ 10 µM | ≤ 10 µM | ≤ 10 µM | ≤ 10 µM | ≤ 10 µM | ≤ 10 µM | – | – | – | – |
| Cc1ccc(F)cc1C(=O)c1c[nH]c2ncc(-c3ccc(Cl)cc3)cc12 [Compound P-0304] | – | – | – | – | – | – | – | ≤ 10 µM | ≤ 10 µM | ≤ 10 µM | – | – | ≤ 10 µM | – |
| COc1cc(OC)cc(C(=O)c2c[nH]c3ncc(-c4cccc(NC(C)=O)c4)cc23)c1 [Compound P-1420, N-{3-[3-(3,5-Dimethoxy-benzoyl)-1H-pyrrolo[2,3-b]pyridin-5-yl]-phenyl}-acetamide] | ≤ 10 µM | – | – | – | ≤ 10 µM | – | ≤ 10 µM | ≤ 10 µM | ≤ 10 µM | ≤ 10 µM | ≤ 10 µM | – | – | – |
| COc1ccc(F)c(C(=O)c2c[nH]c3ncc(-c4cccnc4)cc23)c1F [Compound P-1388, (2,6-Difluoro-3-methoxy-phenyl)-(5-pyridin-3-yl-1H-pyrrolo[2,3-b]pyridin-3-yl)-methanone] | ≤ 10 µM | – | ≤ 10 µM | – | ≤ 10 µM | ≤ 10 µM | ≤ 10 µM | ≤ 10 µM | ≤ 10 µM | ≤ 10 µM | – | ≤ 10 µM | – | – |
| COc1ccc(F)c(C(=O)c2c[nH]c3ncc(-c4ccccc4)cc23)c1 [Compound P-0351] | ≤ 10 µM | – | – | – | ≤ 10 µM | – | ≤ 10 µM | ≤ 10 µM | ≤ 10 µM | – | – | – | ≤ 10 µM | – |

The next lines start with the values.

| IC50 (B-Raf) | IC50 (Jnk1) | IC50 (Src) | IC50 (Jnk3) | IC50 (B-Raf V600E) | IC50 (Fak) | IC50 (Fms) | IC50 (FGFR1) | IC50 (Btk) | IC50 (Kit) | IC50 (Flt1) | IC50 (c-Raf-1) | IC50 (Ret) | IC50 (Kdr) | SMILES |
| --- | --- | --- | --- | --- | --- | --- | --- | --- | --- | --- | --- | --- | --- | --- |
| ≤ 10 µM | ≤ 10 µM | ≤ 10 µM | ≤ 10 µM | ≤ 10 µM | ≤ 10 µM | ≤ 10 µM | ≤ 10 µM | ≤ 10 µM | – | – | – | – | – | O=C(O)/C=C/c1ccc(-c2cnc3[nH]cc(C(=O)c4ccccc4F)c3c2)cc1 [Compound P-1473] |
| ≤ 10 µM | – | ≤ 10 µM | ≤ 10 µM | ≤ 10 µM | ≤ 10 µM | ≤ 10 µM | ≤ 10 µM | ≤ 10 µM | – | – | – | – | – | O=C(c1c(F)cccc1F)c1c[nH]c2ncc(-c3cccnc3)cc12 [Compound P-1485] |
| ≤ 10 µM | – | ≤ 10 µM | – | ≤ 10 µM | ≤ 10 µM | ≤ 10 µM | ≤ 10 µM | ≤ 10 µM | ≤ 10 µM | – | – | – | – | O=C(c1c(F)ccc(NS(=O)(=O)c2cccs2)c1F)c1c[nH]c2ncc(Cl)cc12 [Compound P-1267, Thiophene-2-sulfonic acid [3-(5-chloro-1H-pyrrolo[2,3-b]pyridine-3-carbonyl)-2,4-difluoro-phenyl]-amide] |
| ≤ 10 µM | ≤ 10 µM | ≤ 10 µM | – | ≤ 10 µM | ≤ 10 µM | ≤ 10 µM | ≤ 10 µM | ≤ 10 µM | ≤ 10 µM | ≤ 10 µM | – | – | – | CCCS(=O)(=O)Nc1ccc(F)c(C(=O)c2c[nH]c3ncc(-c4cccc(C(=O)O)c4)cc23)c1F [Compound P-1266, 3-{3-[2,6-Difluoro-3-(propane-1-sulfonylamino)-benzoyl]-1H-pyrrolo[2,3-b]pyridin-5-yl}-benzoic acid] |
| ≤ 10 µM | ≤ 10 µM | ≤ 10 µM | ≤ 10 µM | ≤ 10 µM | – | ≤ 10 µM | ≤ 10 µM | ≤ 10 µM | – | – | ≤ 10 µM | ≤ 10 µM | – | O=C(c1c(F)ccc(NCc2ccccc2)c1F)c1c[nH]c2ncc(-c3cccnc3)cc12 [Compound P-0807, (3-Benzylamino-2,6-difluoro-phenyl)-(5-pyridin-3-yl-1H-pyrrolo[2,3-b]pyridin-3-yl)-methanone] |
| ≤ 10 µM | – | ≤ 10 µM | – | ≤ 10 µM | ≤ 10 µM | ≤ 10 µM | ≤ 10 µM | ≤ 10 µM | ≤ 10 µM | – | – | – | – | Cc1cccc(C)c1C(=O)c1c[nH]c2ncc(-c3cccnc3)cc12 [Compound P-1480] |
| ≤ 10 µM | ≤ 10 µM | ≤ 10 µM | – | ≤ 10 µM | – | ≤ 10 µM | ≤ 10 µM | ≤ 10 µM | ≤ 10 µM | – | – | – | – | COc1cccc(C(=O)c2c[nH]c3ncc(-c4cccnc4)cc23)c1F [Compound P-1343, (2-Fluoro-3-methoxy-phenyl)-(5-pyridin-3-yl-1H-pyrrolo[2,3-b]pyridin-3-yl)-methanone] |
| ≤ 10 µM | – | – | – | ≤ 10 µM | ≤ 10 µM | ≤ 10 µM | ≤ 10 µM | ≤ 10 µM | ≤ 10 µM | – | ≤ 10 µM | – | – | COc1ccc(F)c(C(=O)c2c[nH]c3ncc(-c4ccncc4)cc23)c1F [Compound P-1389, (2,6-Difluoro-3-methoxy-phenyl)-(5-pyridin-4-yl-1H-pyrrolo[2,3-b]pyridin-3-yl)-methanone] |
| ≤ 10 µM | ≤ 10 µM | ≤ 10 µM | – | ≤ 10 µM | ≤ 10 µM | ≤ 10 µM | ≤ 10 µM | ≤ 10 µM | ≤ 10 µM | ≤ 10 µM | ≤ 10 µM | ≤ 10 µM | – | O=C(Nc1ccc(F)c(C(=O)c2c[nH]c3ncc(-c4cccnc4)cc23)c1F)OCc1ccccc1 [Compound P-0302, [2,4-Difluoro-3-(5-pyridin-3-yl-1H-pyrrolo[2,3-b]pyridine-3-carbonyl)-phenyl]-carbamic acid benzyl ester] |
